Measurements reported in patent publication US6770649B2, “1-[1-(hetero)aryl-1-perhydroxyalkylmethyl]-piperazine compounds, process for their preparation and pharmaceutical compositions containing them” (Solvay Pharmaceuticals GmbH, priority 2001, dated 2004).

What follows are compounds tested against T1, human NK-2 receptor (Homo sapiens, UniProt P21452) (assay: Binding power of the test substances to NK-2 receptors in vitro ([3H]-SR 48968 displacement, CHO cell membranes)). Conditions: displacement of [3H]-SR 48968, 90 min incubation, average of at least three measurements, 10^-6 to 10^-10 mol/l, read-out: pKi, affinity to human NK-2 receptors (converted).
T1 construct: expressed in transfected cells; host or cells: CHO cells (membrane preparation)
T1 sequence (P21452 1-398): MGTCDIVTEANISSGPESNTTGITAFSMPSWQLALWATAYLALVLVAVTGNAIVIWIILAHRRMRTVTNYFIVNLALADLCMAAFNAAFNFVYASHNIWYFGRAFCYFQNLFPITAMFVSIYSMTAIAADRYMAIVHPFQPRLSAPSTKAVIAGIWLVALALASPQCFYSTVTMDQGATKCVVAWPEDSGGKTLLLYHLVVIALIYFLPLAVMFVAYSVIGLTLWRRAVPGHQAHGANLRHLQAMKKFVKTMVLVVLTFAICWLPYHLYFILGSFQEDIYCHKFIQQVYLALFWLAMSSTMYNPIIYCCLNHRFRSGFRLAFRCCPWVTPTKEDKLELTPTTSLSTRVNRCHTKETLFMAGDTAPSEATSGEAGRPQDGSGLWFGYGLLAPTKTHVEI
Protocol: 1. Determination of the Binding Power of the Test Substances to NK-2 Receptors in vitro
The affinity of the test substances to human NK-2 receptors was measured in vitro. The ability of the test substances to displace the selective NK-2 receptor antagonist SR 48968 (=saredutant) used as reference ligand from its corresponding bond was determined.
The receptor binding studies were carried out with radioactively marked [^3H]-SR 48968 (from Amersham) as ligand. For the binding test, different samples of a membrane preparation of CHO cells (=[…]), which express the human NK-2 receptor (for preparation, see N. P. Gerard et al., Journal of Biological Chemistry 265/33 (1990) 20455-20462), were incubated for 90 minutes (=min.) with a solution of the marked ligand, with the incubation mixtures containing no test substance or additions of different concentrations of test substance. Then in each case the membrane-bound ligands in the samples were separated from free ligands by filtration. The fraction remaining in the filter was washed several times with buffer solution, before its radioactivity was measured using a liquid scintillation counter. That concentration which effects half-maximum displacement of the bound reference ligand was determined as IC50 of the respective test substance. The inhibition constant (Ki value) of the test substance was calculated from the respective IC50 value, and was stated as the negative logarithmised value thereof (pKi).
For the compounds of Examples 1 to 39, the affinity to human NK-2 receptors was determined in each case by at least three measurements of the test substances in concentration series of 10^−6 to 10^−10 mol/l. If several measurements were performed, the average thereof was listed each time.
For `CC(=O)OC[C@@H](OC(C)=O)[C@H](OC(C)=O)[C@@H](OC(C)=O)C(c1ccsc1)N1CCN(CC[C@H](CN(C)C(=O)c2ccccc2)c2ccc(Cl)c(Cl)c2)CC1` (stereo partly drawn) [Example 14], the Ki was ≤ 10 nM. `CN(CC(CCN1CCN(C(c2ccco2)[C@H](O)[C@@H](O)[C@H](O)CO)CC1)c1ccc(Cl)c(Cl)c1)C(=O)c1ccccc1` (mixture of isomers) [Example 13] was tested, and the Ki was ≤ 10 nM. In the case of `CN(C[C@@H](CCN1CCN(C(c2ccsc2)[C@H](O)[C@@H](O)[C@H](O)CO)CC1)c1ccc(Cl)c(Cl)c1)C(=O)c1ccccc1` (stereo partly drawn) [Example 1, N-((2S)-2-(3,4-dichlorophenyl)-4-{4-[(2S,3R,4R)-2,3,4,5-tetrahydroxy-1-(3-thienyl)pentyl]-1-piperazinyl}butyl)-N-methylbenzamide], the Ki is reported as ≤ 1 nM.
